Values joined by “and” are separate entries in the source; they are usually repeats but may differ in a detail not shown here. Equal entries are not always repeated.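 How tested: cells in 96-well plates exposed to compound for 48 hours at five concentrations. GI50 marks 50% less growth. TGI: concentration producing complete growth inhibition.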 Some results are limits rather than exact numbers.

Common to all, as to experiment: NCI tumour cell line growth inhibition, 48 h
Assay [1] has as its system A549 NSCLC.
Assay [2] concerns BT-549 breast.
Assay [3] has as its system HCT-15 colon.
Assay [4] relates to K-562 leukemia.
The test system of assay [5] is KM20L2 colon.
The test system of assay [6] is LXFL 529 NSCLC.
For assay [7], the system named is OVCAR-8 ovarian.
Assay [8] relates to SF-295 CNS.
The subject of assay [9] is SK-MEL-2 melanoma.
The test system of assay [10] is SNB-19 CNS.

For `C[C@H](N)C(=O)N[C@@H]1[C@H]2C(=C(O)C[C@@H](O)[C@@H]2O)C(=O)O[C@]1(C)C(Cl)Cl`, the GI50 is 0.271 µM in assay [1]; 0.315 µM in assay [2]; 0.894 µM in assay [3]; 0.229 µM and 0.233 µM in assay [4]; 0.255 µM in [7]; 0.308 µM in [9]. Also, the GI50 in assay [10] is 0.242 µM. Besides, the TGI in [1] was 4.92 µM and 2.81 µM; in [2] it was 2.57 µM and 1.53 µM; in assay [3], 10.1 µM and 5.57 µM; in assay [4], 9.75 µM and 2.84 µM; in assay [5], 2.73 µM and 3.23 µM; in [6], 1.53 µM. Besides, the TGI in assay [7] was 3.12 µM and 1.18 µM; in [8], 1.31 µM; in assay [9], 1.49 µM and 0.958 µM; in assay [10], 6.02 µM and 1.72 µM.

Regarding `CCSC(SCC)c1cc2c(cc1Br)OCO2`, the TGI in assay [1] was > 100 µM; in assay [3], > 100 µM; in assay [4] it was 32.7 µM; in [5] it was 64.7 µM; in assay [7] it was > 100 µM; in [8] it was 72.1 µM. For the same compound, the TGI in [9] was 51.9 µM; in assay [10], > 100 µM.

On to `C=CC(=O)N1C/C(=C\c2ccccc2)C(=O)/C(=C/c2ccccc2)C1`, for which the TGI in assay [1] worked out at 9 µM; in assay [2] it was 4.24 µM; in assay [3], 4 µM; in [4] it was 4.04 µM; in assay [5], 3.1 µM; in assay [6], 2.82 µM. Moreover, the TGI in [7] came out at 4.94 µM; in assay [8] it was 5.07 µM; in assay [9] it was 4.81 µM; in assay [10], 7.12 µM. Also, the GI50 was 0.174 µM in assay [4] and 0.8 µM in assay [7].

Regarding `C=CCCOC(=O)CO[N+](=O)[O-]`, the TGI in [1], in assay [3], in assay [4], in [5], in assay [6] and in assay [7] was > 100 µM each time. Also, the TGI in [8], in assay [9] and in [10] was > 100 µM in each case.

On to `CSc1nc(NC2OCC(OC(C)=O)C(OC(C)=O)C2OC(C)=O)c(N=C(C)C(C)=O)c(=O)n1C` (configuration not stated), for which the TGI in [1], in [3], in assay [4], in assay [5], in assay [6] and in assay [7] was > 100 µM throughout. Besides, the TGI in [8], in [9] and in [10] was > 100 µM each time.

Turning to `C#Cc1c(C)c(/C=C/C(C)=C/C=C/C(C)=C/C(=O)OC)n(C)c1C`, the TGI in assay [1], in assay [3], in [4], in assay [5], in [6] and in assay [7] was > 100 µM each time. Also, the TGI in [8], in assay [9] and in assay [10] was > 100 µM each time.

Turning to `COc1cc(Br)c(CC2(C#N)c3ccccc3C3C(N2C(=O)c2ccccc2)C3(Cl)Cl)cc1OC` (configuration not stated), the TGI in [1], in assay [3], in assay [4], in [5], in assay [6] and in assay [7] was > 65.5 µM throughout. The TGI in assay [9] and in assay [10] was > 65.5 µM throughout.

Consider `CCN(CC)CC.CCOc1ccc(NC(=O)N=C=[N-])cc1.[CH-]1CCCCC1.[CH-]1CCCCC1.[CH-]1CCCCC1.[Cl-].[Sn+4]`, for which the GI50 is 0.0331 µM in assay [1]; 0.149 µM in assay [2]; 0.0198 µM in assay [3]; 0.0171 µM in assay [4]; 0.0229 µM in assay [5]; 0.0193 µM in [6]. For the same compound, the GI50 in assay [7] was 0.0424 µM; in assay [8], 0.0521 µM; in assay [9] it was 0.0376 µM; in [10] it was 0.0586 µM. Also, the TGI in assay [1] turned out to be 0.107 µM; in [2], 0.292 µM; in assay [3], 0.0555 µM; in assay [4], 0.463 µM; in assay [5] it was 0.0505 µM; in assay [6], 0.0488 µM. In addition, the TGI in assay [7] was determined as 0.123 µM; in assay [8], 0.149 µM; in assay [9], 0.0964 µM; in assay [10], 0.122 µM.

As for `CCOC(=O)Cc1nc2ccccc2s1`, the TGI in assay [1] came out at 54.2 µM; in assay [4], 71.9 µM; in assay [5], 69.1 µM; in [6], 29.4 µM; in assay [7], 32.8 µM; in [8], 32.2 µM. Also, the TGI in assay [9] is 36.5 µM; in [10], > 100 µM.

On to `Cc1nnc(N=Nc2c(O)[nH]c3c(Cl)cc(Cl)cc23)n1N`, for which the TGI in assay [1], in assay [3], in assay [4], in assay [5], in assay [6] and in [7] was > 100 µM throughout. Moreover, the TGI in assay [8], in assay [9] and in assay [10] was > 100 µM in each case.

With `O=C(Cc1nc2ccccc2s1)Nc1ccc(Cl)cc1`, the TGI in [1], in [4], in assay [5], in assay [6], in assay [7] and in [8] was > 100 µM each time. Moreover, the TGI in [9] and in assay [10] was > 100 µM in each case.

Values taken from PubChem BioAssay (NCI).
